Reference: ChEMBL document CHEMBL5303573, “Mapping human microbiome drug metabolism by gut bacteria and their genes” (Nature, 2019)

How the values were obtained:
[1] = The drug is tested on Clostridium symbiosum strain: ATCC14940 for biotransformation. The drug concentrations were measured before and after a 12-h incubation by liquid-chromatography-coupled mass spectrometry (LC–MS); conditions: 2 µM
[2] = The drug is tested on Collinsella intestinalis strain: DSM13280 for biotransformation. The drug concentrations were measured before and after a 12-h incubation by liquid-chromatography-coupled mass spectrometry (LC–MS); conditions: 2 µM
[3] = limosilactobacillus reuteri cf48-3a, 12 h, 2 µM
Description: The drug is tested on Lactobacillus reuteri CF48-3A strain: BEI HM-102 for biotransformation. The drug concentrations were measured before and after a 12-h incubation by liquid-chromatography-coupled mass spectrometry (LC–MS)

[4] = bacteroides eggerthii, 12 h, 2 µM
Description: The drug is tested on Bacteroides eggerthii strain: DSM20697 for biotransformation. The drug concentrations were measured before and after a 12-h incubation by liquid-chromatography-coupled mass spectrometry (LC–MS)

[5] = The drug is tested on Bacteroides finegoldii strain: DSM17565 for biotransformation. The drug concentrations were measured before and after a 12-h incubation by liquid-chromatography-coupled mass spectrometry (LC–MS); conditions: 2 µM
[6] = victivallis vadensis, 12 h, 2 µM
Description: The drug is tested on Victivallis vadensis strain: ATCC BAA-548 for biotransformation. The drug concentrations were measured before and after a 12-h incubation by liquid-chromatography-coupled mass spectrometry (LC–MS)

[7] = roseburia intestinalis, 12 h, 2 µM
Description: The drug is tested on Roseburia intestinalis strain: L1-82 for biotransformation. The drug concentrations were measured before and after a 12-h incubation by liquid-chromatography-coupled mass spectrometry (LC–MS)

[8] = The drug is tested on Escherichia coli strain: BW25113 for biotransformation. The drug concentrations were measured before and after a 12-h incubation by liquid-chromatography-coupled mass spectrometry (LC–MS); conditions: 2 µM
[9] = The drug is tested on Providencia stuartii strain: ATCC25827 for biotransformation. The drug concentrations were measured before and after a 12-h incubation by liquid-chromatography-coupled mass spectrometry (LC–MS); conditions: 2 µM
[10] = bacteroides fragilis, 12 h, 2 µM
Description: The drug is tested on Bacteroides fragilis strain: DS-208 for biotransformation. The drug concentrations were measured before and after a 12-h incubation by liquid-chromatography-coupled mass spectrometry (LC–MS)

[11] = The drug is tested on Clostridium sporogenes strain: ATCC15579 for biotransformation. The drug concentrations were measured before and after a 12-h incubation by liquid-chromatography-coupled mass spectrometry (LC–MS); conditions: 2 µM
[12] = parabacteroides johnsonii, 12 h, 2 µM
Description: The drug is tested on Parabacteroides johnsonii strain: DSM18315 for biotransformation. The drug concentrations were measured before and after a 12-h incubation by liquid-chromatography-coupled mass spectrometry (LC–MS)

[13] = The drug is tested on Anaerotruncus colihominis strain: DSM17241 for biotransformation. The drug concentrations were measured before and after a 12-h incubation by liquid-chromatography-coupled mass spectrometry (LC–MS); conditions: 2 µM
[14] = The drug is tested on Bacteroides pectinophilus strain: ATCC43243 for biotransformation. The drug concentrations were measured before and after a 12-h incubation by liquid-chromatography-coupled mass spectrometry (LC–MS); conditions: 2 µM
[15] = The drug is tested on Collinsella aerofaciens strain: ATCC25986 for biotransformation. The drug concentrations were measured before and after a 12-h incubation by liquid-chromatography-coupled mass spectrometry (LC–MS); conditions: 2 µM
[16] = The drug is tested on Parabacteroides merdae strain: ATCC43184 for biotransformation. The drug concentrations were measured before and after a 12-h incubation by liquid-chromatography-coupled mass spectrometry (LC–MS); conditions: 2 µM
[17] = The drug is tested on Eubacterium rectale strain: ATCC33656 for biotransformation. The drug concentrations were measured before and after a 12-h incubation by liquid-chromatography-coupled mass spectrometry (LC–MS); conditions: agathobacter rectalis, 2 µM
[18] = The drug is tested on Edwardsiella tarda strain: ATCC23685 for biotransformation. The drug concentrations were measured before and after a 12-h incubation by liquid-chromatography-coupled mass spectrometry (LC–MS); conditions: 2 µM
[19] = enterocloster bolteae, 12 h, 2 µM
Description: The drug is tested on Clostridium bolteae strain: ATCCBAA-613 for biotransformation. The drug concentrations were measured before and after a 12-h incubation by liquid-chromatography-coupled mass spectrometry (LC–MS)

[20] = The drug is tested on Blautia hansenii strain: DSM20583 for biotransformation. The drug concentrations were measured before and after a 12-h incubation by liquid-chromatography-coupled mass spectrometry (LC–MS); conditions: 2 µM

| Compound | Bacterial Biotransformation [1] | Bacterial Biotransformation [2] | Bacterial Biotransformation [3] | Bacterial Biotransformation [4] | Bacterial Biotransformation [5] | Bacterial Biotransformation [6] | Bacterial Biotransformation [7] | Bacterial Biotransformation [8] | Bacterial Biotransformation [9] | Bacterial Biotransformation [10] | Bacterial Biotransformation [11] | Bacterial Biotransformation [12] | Bacterial Biotransformation [13] | Bacterial Biotransformation [14] | Bacterial Biotransformation [15] | Bacterial Biotransformation [16] | Bacterial Biotransformation [17] | Bacterial Biotransformation [18] | Bacterial Biotransformation [19] | Bacterial Biotransformation [20] |
| --- | --- | --- | --- | --- | --- | --- | --- | --- | --- | --- | --- | --- | --- | --- | --- | --- | --- | --- | --- | --- |
| CN(C)C(=O)Oc1cc(OC(=O)N(C)C)cc(C(O)CNC(C)(C)C)c1 (stereo not given) [BAMBUTEROL] | Compound NOT metabolized | Compound NOT metabolized | Compound NOT metabolized | Compound NOT metabolized | Compound NOT metabolized | Compound NOT metabolized | Compound NOT metabolized | Compound NOT metabolized | Compound NOT metabolized | Compound NOT metabolized | Compound NOT metabolized | Compound NOT metabolized | Compound NOT metabolized | Compound NOT metabolized | Compound NOT metabolized | Compound NOT metabolized | Compound NOT metabolized | Compound NOT metabolized | Compound NOT metabolized | Compound NOT metabolized |
| CC(=O)OCC(=O)[C@@]12N=C(C)O[C@@H]1C[C@H]1[C@@H]3CCC4=CC(=O)C=C[C@]4(C)[C@H]3[C@@H](O)C[C@@]12C [DEFLAZACORT] | Compound metabolized | Compound metabolized | Compound metabolized | Compound metabolized | Compound metabolized | Compound metabolized | Compound metabolized | Compound metabolized | Compound metabolized | Compound metabolized | Compound metabolized | Compound metabolized | Compound metabolized | Compound metabolized | Compound metabolized | Compound metabolized | Compound metabolized | Compound metabolized | Compound metabolized | Compound metabolized |
| CC(=O)Oc1ccc(C(c2ccc(OC(C)=O)cc2)c2ccccn2)cc1 [BISACODYL] | Compound metabolized | Compound metabolized | Compound metabolized | Compound metabolized | Compound metabolized | Compound metabolized | Compound metabolized | Compound metabolized | Compound metabolized | Compound metabolized | Compound metabolized | Compound metabolized | Compound metabolized | Compound metabolized | Compound metabolized | Compound metabolized | Compound metabolized | Compound metabolized | Compound metabolized | Compound metabolized |
| COc1ccccc1OCCNCC(O)COc1cccc2[nH]c3ccccc3c12 (stereo not given) [CARVEDILOL] | Compound NOT metabolized | Compound NOT metabolized | Compound NOT metabolized | Compound NOT metabolized | Compound metabolized | Compound NOT metabolized | Compound NOT metabolized | Compound metabolized | Compound metabolized | Compound metabolized | Compound metabolized | Compound metabolized | Compound metabolized | Compound NOT metabolized | Compound metabolized | Compound metabolized | Compound NOT metabolized | Compound NOT metabolized | Compound NOT metabolized | Compound metabolized |
| COc1c(C)c2c(c(O)c1C/C=C(\C)CCC(=O)OCCN1CCOCC1)C(=O)OC2 [MYCOPHENOLATE MOFETIL] | Compound metabolized | Compound metabolized | Compound metabolized | Compound metabolized | Compound metabolized | Compound metabolized | Compound metabolized | Compound metabolized | Compound metabolized | Compound metabolized | Compound metabolized | Compound metabolized | Compound metabolized | Compound metabolized | Compound metabolized | Compound metabolized | Compound metabolized | Compound metabolized | Compound metabolized | Compound metabolized |
| COc1ccc2[nH]c([S+]([O-])Cc3ncc(C)c(OC)c3C)nc2n1 (stereo not given) [TENATOPRAZOLE] |  | Compound metabolized | Compound metabolized | Compound metabolized | Compound metabolized | Compound metabolized | Compound metabolized | Compound metabolized | Compound metabolized | Compound metabolized | Compound metabolized | Compound metabolized |  | Compound metabolized | Compound metabolized | Compound metabolized | Compound metabolized | Compound metabolized |  | Compound metabolized |
| C#C[C@]1(O)CC[C@H]2[C@@H]3CCC4=Cc5oncc5C[C@]4(C)[C@H]3CC[C@@]21C [DANAZOL] | Compound metabolized | Compound metabolized |  | Compound metabolized | Compound metabolized | Compound metabolized | Compound metabolized | Compound metabolized | Compound metabolized | Compound metabolized | Compound metabolized | Compound metabolized | Compound metabolized | Compound metabolized | Compound metabolized | Compound metabolized | Compound metabolized | Compound metabolized | Compound metabolized | Compound metabolized |
| CNC(=C[N+](=O)[O-])NCCSCc1ccc(CN(C)C)o1 [RANITIDINE] | Compound metabolized | Compound metabolized | Compound NOT metabolized | Compound NOT metabolized |  | Compound NOT metabolized | Compound metabolized | Compound NOT metabolized | Compound NOT metabolized | Compound metabolized | Compound NOT metabolized | Compound metabolized | Compound metabolized | Compound metabolized | Compound metabolized | Compound NOT metabolized | Compound metabolized | Compound NOT metabolized | Compound NOT metabolized | Compound metabolized |
